Measured values from PubChem BioAssay (NCI).
Several values for one entry are separate records, joined by “and”; a condition that tells them apart may be missing. Equal values may be shown once.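 Exposure lasted 48 hours, with cells grown in 96-well plates and compounds tested at five concentrations. Abbreviation: GI50, concentration required for 50% inhibition of growth. TGI denotes the concentration required for complete inhibition of growth.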

Legend:
Test in all cases: NCI tumour cell line growth inhibition, 48 h
HOP-92 NSCLC = test system: HOP-92 NSCLC
A498 renal = test system: A498 renal
CAKI-1 renal = test system: CAKI-1 renal
SK-MEL-2 melanoma = test system: SK-MEL-2 melanoma
HS 578T breast = test system: HS 578T breast
HT29 colon = test system: HT29 colon
EKVX NSCLC = test system: EKVX NSCLC
IGROV1 ovarian = test system: IGROV1 ovarian
HCT-15 colon = test system: HCT-15 colon
HCC-2998 colon = test system: HCC-2998 colon

SMILES	GI50 (HOP-92 NSCLC)	TGI (HOP-92 NSCLC)	GI50 (A498 renal)	TGI (A498 renal)	GI50 (CAKI-1 renal)	TGI (CAKI-1 renal)	GI50 (SK-MEL-2 melanoma)	TGI (SK-MEL-2 melanoma)	GI50 (HS 578T breast)	TGI (HS 578T breast)	GI50 (HT29 colon)	TGI (HT29 colon)	GI50 (EKVX NSCLC)	TGI (EKVX NSCLC)	GI50 (IGROV1 ovarian)	TGI (IGROV1 ovarian)	GI50 (HCT-15 colon)	TGI (HCT-15 colon)	GI50 (HCC-2998 colon)	TGI (HCC-2998 colon)
O=C1NC(=O)C2C3C=CC(C12)C1C2C(=O)NC(=O)C2C31 (stereo unspecified)	> 1000 µM	230 µM and > 1000 µM	467 µM	250 µM and > 1000 µM	568 µM	250 µM and > 1000 µM	> 719 µM	244 µM and > 1000 µM	419 µM	250 µM and > 562 µM	657 µM	194 µM and > 1000 µM	543 µM	250 µM and > 1000 µM	> 770 µM	248 µM and > 1000 µM	> 43.6 µM and 646 µM	> 61 µM and 250 µM and > 1000 µM	> 587 µM	250 µM and > 1000 µM
CCCCCCCCCCCCOC1C(C(COC2OC(C(O)CO)C3OC(C)(C)OC23)OC(=O)Nc2ccccc2)OC2OC(C)(C)OC21 (stereo unspecified)	7.29 µM	20.1 µM	12.4 µM	25.1 µM	12 µM	25.9 µM	16.3 µM	32.4 µM	6.13 µM	18.6 µM	2.11 µM	4.68 µM	9.94 µM	22.2 µM	4.94 µM	15.3 µM	4.5 µM	16.1 µM	5.39 µM	10.4 µM
COc1ccc(-c2c(Nc3ccccn3)nc3c(C4=CCCCC4)c(-c4ccccc4)[nH]n3c2=O)cc1	1.45 µM	9.26 µM	2.01 µM	15.4 µM	2.48 µM	15.1 µM	2.21 µM	9.54 µM	3.32 µM	33.1 µM	2.62 µM	> 100 µM	2.97 µM	36.9 µM	3.5 µM	51.4 µM	1.64 µM	> 100 µM	3.7 µM	> 100 µM
CCOC(=O)C#Cc1c(C(=O)OCC)nnn1[C@@H]1O[C@H](COC)[C@@H](OC)[C@H]1OC	2.8 µM	7.61 µM	18.2 µM	32.9 µM	1.74 µM	3.14 µM	16.6 µM	32.9 µM	23.7 µM	72.7 µM	2.86 µM	6.49 µM	16.3 µM	32.9 µM	18.4 µM	39.6 µM	2.56 µM	6.66 µM	18 µM	32.8 µM
N=C(N)SCc1ccc(Cl)c2ccccc12 (tested in a mixture with another compound)		32.2 µM and 24.9 µM		22.5 µM and 23.2 µM		19.2 µM and 24.4 µM		21.7 µM and 25.1 µM		48.1 µM and 53 µM		24.2 µM and 26.4 µM		24.5 µM and 27.5 µM		29 µM and 30.8 µM		32.8 µM and 36.8 µM		6.66 µM and 4.89 µM
COc1cc2c3c(n(CCCN)c(=O)c2cc1OC)-c1ccc(N)cc1C3=O	2.3 µM	15.3 µM	1.93 µM	9.78 µM	30.9 µM	> 82.3 µM	7.77 µM	29.8 µM	2.02 µM	12.5 µM	2.41 µM	18.2 µM	9.15 µM	> 30.9 µM	1.43 µM	> 50.4 µM	24.4 µM	> 100 µM	0.806 µM	6 µM
COc1cc(/C=C/c2cc(/C=C/c3ccc(O)c(OC)c3)n(C(=O)Nc3ccc(C)cc3)n2)ccc1O	0.682 µM	4.18 µM	1.43 µM	4.87 µM	0.311 µM	6.95 µM	0.681 µM	3.97 µM	0.278 µM	0.689 µM	1.93 µM	5.19 µM	0.992 µM	5.02 µM	0.667 µM	3.94 µM	0.384 µM	5.27 µM	2.12 µM	9.46 µM
O=C(O)c1cn(C2CC2)c2cc(N3CCN(C(=O)N(c4ccccc4)c4nc(-c5ccccc5)cs4)CC3)c(F)cc2c1=O	0.241 µM	0.948 µM	0.028 µM	0.688 µM			0.554 µM	2.92 µM	0.393 µM	> 100 µM			0.397 µM	> 100 µM	0.393 µM	> 100 µM	0.308 µM	> 100 µM	0.595 µM	> 100 µM
CN1CCN(C(=O)/C=C/c2ccc([N+](=O)[O-])o2)CC1	11.4 µM	26.1 µM	16.8 µM	34.3 µM	10.6 µM	34.3 µM	6.5 µM	29.6 µM	46.5 µM	> 100 µM	9.81 µM	37 µM	23.2 µM	87.6 µM	10.8 µM	36.4 µM	3.14 µM	14.9 µM	18.2 µM	38.1 µM
O=C1c2ccccc2-c2c1c1c(O)cccc1n2Cc1ccccc1	4.22 µM	19.8 µM	6.24 µM	25 µM	7.15 µM	20.8 µM	39.7 µM	> 100 µM	10.3 µM	32.8 µM	38.2 µM	> 100 µM	16.5 µM	69.2 µM			27.5 µM	> 100 µM	12.7 µM	39.1 µM
O=C(CCN1CCOCC1)Nc1ccc(Cn2nnc3c2C(=O)c2nnn(Cc4ccc(NC(=O)CCN5CCOCC5)cc4)c2C3=O)cc1	2.36 µM	4.64 µM	> 100 µM	> 100 µM	> 100 µM	> 100 µM			3.03 µM	24.9 µM	1.24 µM	> 100 µM	> 100 µM	> 100 µM			> 100 µM	> 100 µM	2.62 µM	6.68 µM
COc1cc(NC(=O)COc2ccccc2)c(C(N)=O)cc1OC	17.7 µM	52.5 µM	2.77 µM	15.4 µM	3.8 µM	> 100 µM			0.771 µM	26.9 µM	0.437 µM	> 100 µM			4.07 µM	> 100 µM	0.804 µM	> 100 µM	3.33 µM	68.3 µM
